Source: patent publication US20240246942A1, “KINASE INHIBITORS FOR THE TREATMENT OF NEURODEGENERATIVE DISEASES” (priority 2020, published 2024)
Read-outs that look alike come from different tables or passages of the source.

Legend:
Assay in all cases: biochemical
[1] = molecular target: T1, panel of 374 wild-type kinases (Homo sapiens, UniProt P43405); conditions: read-out: % Enzyme Activity (relative to DMSO controls), kinase SYK
T1 construct: purchased Reaction Biology Corporation

[2] = molecular target: T2, panel of 374 wild-type kinases (Homo sapiens, UniProt Q6PHR2); conditions: read-out: % Enzyme Activity (relative to DMSO controls), kinase ULK3
T2 construct: purchased Reaction Biology Corporation
T2 sequence (Q6PHR2 1-472): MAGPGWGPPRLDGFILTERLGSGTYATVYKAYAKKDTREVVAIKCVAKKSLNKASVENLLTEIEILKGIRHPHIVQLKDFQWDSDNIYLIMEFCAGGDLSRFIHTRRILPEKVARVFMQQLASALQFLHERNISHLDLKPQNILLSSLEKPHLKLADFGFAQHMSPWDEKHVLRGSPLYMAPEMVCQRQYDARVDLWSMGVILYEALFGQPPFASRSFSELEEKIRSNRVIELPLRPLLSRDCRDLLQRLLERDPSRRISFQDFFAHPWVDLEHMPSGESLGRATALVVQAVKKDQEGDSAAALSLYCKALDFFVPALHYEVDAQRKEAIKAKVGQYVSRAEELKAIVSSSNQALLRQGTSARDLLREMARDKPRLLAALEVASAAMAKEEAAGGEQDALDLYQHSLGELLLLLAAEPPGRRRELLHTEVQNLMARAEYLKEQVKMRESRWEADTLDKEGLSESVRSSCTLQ

[3] = molecular target: T3, panel of 374 wild-type kinases (Homo sapiens, UniProt Q9HC98); conditions: read-out: % Enzyme Activity (relative to DMSO controls), NEK6
T3 construct: purchased Reaction Biology Corporation
T3 sequence (Q9HC98 whole entry): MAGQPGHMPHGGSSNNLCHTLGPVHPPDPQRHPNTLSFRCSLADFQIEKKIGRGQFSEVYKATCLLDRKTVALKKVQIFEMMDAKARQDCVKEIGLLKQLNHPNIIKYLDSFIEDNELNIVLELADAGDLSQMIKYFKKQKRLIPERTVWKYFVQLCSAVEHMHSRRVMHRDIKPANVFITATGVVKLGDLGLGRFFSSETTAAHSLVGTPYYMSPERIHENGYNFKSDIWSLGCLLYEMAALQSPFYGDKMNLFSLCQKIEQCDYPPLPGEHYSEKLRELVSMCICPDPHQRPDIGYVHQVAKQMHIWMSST

[4] = molecular target: T4, panel of 374 wild-type kinases (Homo sapiens, UniProt P57059)
T4 construct: purchased Reaction Biology Corporation
T4 sequence (P57059 whole entry): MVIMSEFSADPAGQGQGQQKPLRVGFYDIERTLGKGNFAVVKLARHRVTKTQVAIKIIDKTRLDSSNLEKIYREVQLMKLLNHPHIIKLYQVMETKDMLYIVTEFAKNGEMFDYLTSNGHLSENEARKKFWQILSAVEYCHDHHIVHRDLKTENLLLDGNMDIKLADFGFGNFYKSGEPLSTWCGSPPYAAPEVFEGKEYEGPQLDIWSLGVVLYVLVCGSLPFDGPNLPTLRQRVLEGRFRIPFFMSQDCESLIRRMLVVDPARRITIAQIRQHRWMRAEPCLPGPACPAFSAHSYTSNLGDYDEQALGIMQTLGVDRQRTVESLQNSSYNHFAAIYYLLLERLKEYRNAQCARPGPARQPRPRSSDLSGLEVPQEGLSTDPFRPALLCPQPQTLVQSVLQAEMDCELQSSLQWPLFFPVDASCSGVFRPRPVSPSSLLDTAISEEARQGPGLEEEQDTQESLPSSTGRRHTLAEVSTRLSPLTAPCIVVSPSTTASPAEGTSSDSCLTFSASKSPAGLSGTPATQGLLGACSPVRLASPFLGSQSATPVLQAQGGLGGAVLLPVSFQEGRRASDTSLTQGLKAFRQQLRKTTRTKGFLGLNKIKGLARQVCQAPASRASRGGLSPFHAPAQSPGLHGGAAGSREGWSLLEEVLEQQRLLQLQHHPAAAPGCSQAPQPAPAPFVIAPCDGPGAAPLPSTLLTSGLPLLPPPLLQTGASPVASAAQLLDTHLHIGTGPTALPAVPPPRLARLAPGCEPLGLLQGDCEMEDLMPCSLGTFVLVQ

[5] = molecular target: T5, panel of 374 wild-type kinases (Homo sapiens, UniProt Q16539); conditions: P38a/MAPK14, read-out: % Enzyme Activity (relative to DMSO controls)
T5 construct: purchased Reaction Biology Corporation
T5 sequence (Q16539 whole entry): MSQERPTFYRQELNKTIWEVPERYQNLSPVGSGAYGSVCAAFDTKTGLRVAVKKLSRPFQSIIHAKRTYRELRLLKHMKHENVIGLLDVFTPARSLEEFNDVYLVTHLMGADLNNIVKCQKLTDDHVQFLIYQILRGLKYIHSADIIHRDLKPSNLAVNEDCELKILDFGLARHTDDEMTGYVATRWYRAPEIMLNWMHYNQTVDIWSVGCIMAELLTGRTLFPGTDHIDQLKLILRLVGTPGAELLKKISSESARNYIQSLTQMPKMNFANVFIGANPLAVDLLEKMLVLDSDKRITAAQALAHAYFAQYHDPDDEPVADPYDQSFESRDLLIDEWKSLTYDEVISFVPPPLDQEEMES

[6] = molecular target: T6, panel of 374 wild-type kinases (Homo sapiens, UniProt Q13554); conditions: read-out: % Enzyme Activity (relative to DMSO controls), CAMK2b
T6 construct: purchased Reaction Biology Corporation
T6 sequence (Q13554 whole entry): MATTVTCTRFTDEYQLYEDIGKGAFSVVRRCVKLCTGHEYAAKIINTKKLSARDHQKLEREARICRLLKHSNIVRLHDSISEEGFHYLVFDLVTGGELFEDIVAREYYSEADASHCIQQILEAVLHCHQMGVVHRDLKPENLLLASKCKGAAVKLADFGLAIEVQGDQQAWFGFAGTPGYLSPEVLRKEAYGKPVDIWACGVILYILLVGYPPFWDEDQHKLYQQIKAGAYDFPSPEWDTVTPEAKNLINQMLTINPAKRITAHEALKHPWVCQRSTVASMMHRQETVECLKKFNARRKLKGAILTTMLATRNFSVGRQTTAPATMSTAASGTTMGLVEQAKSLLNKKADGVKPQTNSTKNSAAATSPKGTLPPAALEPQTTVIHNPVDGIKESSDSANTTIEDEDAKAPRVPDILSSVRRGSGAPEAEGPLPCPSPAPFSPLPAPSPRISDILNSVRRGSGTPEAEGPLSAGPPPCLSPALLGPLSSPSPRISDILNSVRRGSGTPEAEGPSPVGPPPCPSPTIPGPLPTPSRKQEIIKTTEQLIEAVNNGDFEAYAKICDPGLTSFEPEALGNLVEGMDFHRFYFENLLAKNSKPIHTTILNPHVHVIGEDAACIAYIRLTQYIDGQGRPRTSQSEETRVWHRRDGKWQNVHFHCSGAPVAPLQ

[7] = molecular target: T7, panel of 374 wild-type kinases (Homo sapiens, UniProt Q14012); conditions: read-out: % Enzyme Activity (relative to DMSO controls), CAMK1a
T7 construct: purchased Reaction Biology Corporation
T7 sequence (Q14012 whole entry): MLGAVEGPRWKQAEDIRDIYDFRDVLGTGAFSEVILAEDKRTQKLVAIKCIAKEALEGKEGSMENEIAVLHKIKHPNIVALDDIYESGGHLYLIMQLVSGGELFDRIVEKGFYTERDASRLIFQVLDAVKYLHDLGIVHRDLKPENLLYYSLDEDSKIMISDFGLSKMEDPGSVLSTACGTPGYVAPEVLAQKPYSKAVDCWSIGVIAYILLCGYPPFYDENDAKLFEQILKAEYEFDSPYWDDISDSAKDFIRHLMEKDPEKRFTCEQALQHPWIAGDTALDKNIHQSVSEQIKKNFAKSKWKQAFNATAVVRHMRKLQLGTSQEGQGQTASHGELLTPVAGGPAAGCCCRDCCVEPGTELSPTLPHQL

[8] = molecular target: T8, panel of 374 wild-type kinases (Homo sapiens, UniProt Q9H2G2); conditions: read-out: % Enzyme Activity (relative to DMSO controls), kinase SLK/STK2
T8 construct: purchased Reaction Biology Corporation
T8 sequence (Q9H2G2 whole entry): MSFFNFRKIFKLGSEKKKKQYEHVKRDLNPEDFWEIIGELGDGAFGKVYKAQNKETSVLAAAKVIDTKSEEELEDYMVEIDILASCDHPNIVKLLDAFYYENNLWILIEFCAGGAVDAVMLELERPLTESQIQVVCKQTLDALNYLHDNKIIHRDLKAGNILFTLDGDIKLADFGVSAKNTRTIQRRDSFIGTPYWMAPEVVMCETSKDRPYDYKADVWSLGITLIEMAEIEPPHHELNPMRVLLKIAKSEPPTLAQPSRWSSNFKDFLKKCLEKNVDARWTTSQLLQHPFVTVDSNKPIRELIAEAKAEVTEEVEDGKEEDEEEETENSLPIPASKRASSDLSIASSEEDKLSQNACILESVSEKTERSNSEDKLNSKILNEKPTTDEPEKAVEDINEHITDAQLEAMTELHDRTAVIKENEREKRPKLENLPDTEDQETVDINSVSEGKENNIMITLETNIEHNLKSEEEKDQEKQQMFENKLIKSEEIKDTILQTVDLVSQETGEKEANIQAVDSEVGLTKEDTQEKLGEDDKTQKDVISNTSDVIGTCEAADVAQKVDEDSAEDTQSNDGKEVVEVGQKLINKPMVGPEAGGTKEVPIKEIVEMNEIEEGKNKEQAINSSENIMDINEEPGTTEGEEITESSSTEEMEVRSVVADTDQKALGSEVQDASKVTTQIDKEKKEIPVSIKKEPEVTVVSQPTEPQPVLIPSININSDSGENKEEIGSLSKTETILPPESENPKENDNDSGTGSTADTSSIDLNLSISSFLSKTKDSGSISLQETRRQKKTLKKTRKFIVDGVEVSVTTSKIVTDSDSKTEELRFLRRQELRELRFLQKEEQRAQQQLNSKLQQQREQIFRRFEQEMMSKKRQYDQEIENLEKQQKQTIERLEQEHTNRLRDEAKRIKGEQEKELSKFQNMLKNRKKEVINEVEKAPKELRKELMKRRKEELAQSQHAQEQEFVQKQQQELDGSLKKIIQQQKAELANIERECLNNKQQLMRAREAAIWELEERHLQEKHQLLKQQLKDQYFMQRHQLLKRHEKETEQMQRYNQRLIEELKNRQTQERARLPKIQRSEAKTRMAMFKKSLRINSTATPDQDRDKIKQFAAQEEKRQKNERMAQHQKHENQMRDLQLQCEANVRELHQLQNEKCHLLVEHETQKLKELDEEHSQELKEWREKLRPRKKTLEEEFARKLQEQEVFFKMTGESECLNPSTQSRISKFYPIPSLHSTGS

[9] = molecular target: T9, panel of 374 wild-type kinases (Homo sapiens, UniProt P51955); conditions: read-out: % Enzyme Activity (relative to DMSO controls), NEK2
T9 construct: purchased Reaction Biology Corporation
T9 sequence (P51955 1-445): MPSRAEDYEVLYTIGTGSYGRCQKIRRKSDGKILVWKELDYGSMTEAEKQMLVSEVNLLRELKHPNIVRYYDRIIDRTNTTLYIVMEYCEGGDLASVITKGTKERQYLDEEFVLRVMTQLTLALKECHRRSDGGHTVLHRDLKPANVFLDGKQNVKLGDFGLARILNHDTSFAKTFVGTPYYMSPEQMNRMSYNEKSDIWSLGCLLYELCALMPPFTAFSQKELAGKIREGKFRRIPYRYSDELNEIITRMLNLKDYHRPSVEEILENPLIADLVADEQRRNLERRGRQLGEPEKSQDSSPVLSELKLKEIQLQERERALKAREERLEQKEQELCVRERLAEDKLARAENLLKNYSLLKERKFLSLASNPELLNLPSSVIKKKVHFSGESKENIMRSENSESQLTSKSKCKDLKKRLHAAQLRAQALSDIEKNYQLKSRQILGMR

[10] = molecular target: T10, panel of 374 wild-type kinases (Homo sapiens, UniProt P10721); conditions: read-out: % Enzyme Activity (relative to DMSO controls), c-Kit
T10 construct: purchased Reaction Biology Corporation
T10 sequence (P10721 26-976): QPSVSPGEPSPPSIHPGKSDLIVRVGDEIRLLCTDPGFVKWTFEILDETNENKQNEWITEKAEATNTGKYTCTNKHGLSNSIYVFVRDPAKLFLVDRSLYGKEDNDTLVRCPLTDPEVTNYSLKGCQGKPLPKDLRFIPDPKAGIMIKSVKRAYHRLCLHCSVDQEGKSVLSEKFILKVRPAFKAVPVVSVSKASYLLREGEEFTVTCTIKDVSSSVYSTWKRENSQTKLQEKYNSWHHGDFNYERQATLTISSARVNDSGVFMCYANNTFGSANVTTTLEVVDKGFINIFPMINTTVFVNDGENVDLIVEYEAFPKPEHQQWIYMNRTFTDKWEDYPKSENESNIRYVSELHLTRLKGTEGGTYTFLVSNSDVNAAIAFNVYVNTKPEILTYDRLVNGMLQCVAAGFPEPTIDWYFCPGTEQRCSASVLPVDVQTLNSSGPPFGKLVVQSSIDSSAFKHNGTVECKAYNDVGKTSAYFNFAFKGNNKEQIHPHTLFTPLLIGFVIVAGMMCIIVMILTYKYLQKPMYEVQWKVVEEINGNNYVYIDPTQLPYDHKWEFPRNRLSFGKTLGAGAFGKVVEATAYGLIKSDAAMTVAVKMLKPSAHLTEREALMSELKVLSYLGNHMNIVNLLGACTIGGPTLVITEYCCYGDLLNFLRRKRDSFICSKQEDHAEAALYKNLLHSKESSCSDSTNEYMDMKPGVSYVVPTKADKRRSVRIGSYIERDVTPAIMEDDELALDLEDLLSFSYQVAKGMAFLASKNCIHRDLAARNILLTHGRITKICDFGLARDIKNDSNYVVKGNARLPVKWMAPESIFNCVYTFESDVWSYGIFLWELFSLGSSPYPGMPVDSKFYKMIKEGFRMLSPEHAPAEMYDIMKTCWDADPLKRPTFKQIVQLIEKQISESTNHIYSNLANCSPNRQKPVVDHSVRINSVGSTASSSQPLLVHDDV

[11] = molecular target: T11, panel of 374 wild-type kinases (Homo sapiens, UniProt P25098); conditions: read-out: % Enzyme Activity (relative to DMSO controls), GRK2
T11 construct: purchased Reaction Biology Corporation
T11 sequence (P25098 1-689): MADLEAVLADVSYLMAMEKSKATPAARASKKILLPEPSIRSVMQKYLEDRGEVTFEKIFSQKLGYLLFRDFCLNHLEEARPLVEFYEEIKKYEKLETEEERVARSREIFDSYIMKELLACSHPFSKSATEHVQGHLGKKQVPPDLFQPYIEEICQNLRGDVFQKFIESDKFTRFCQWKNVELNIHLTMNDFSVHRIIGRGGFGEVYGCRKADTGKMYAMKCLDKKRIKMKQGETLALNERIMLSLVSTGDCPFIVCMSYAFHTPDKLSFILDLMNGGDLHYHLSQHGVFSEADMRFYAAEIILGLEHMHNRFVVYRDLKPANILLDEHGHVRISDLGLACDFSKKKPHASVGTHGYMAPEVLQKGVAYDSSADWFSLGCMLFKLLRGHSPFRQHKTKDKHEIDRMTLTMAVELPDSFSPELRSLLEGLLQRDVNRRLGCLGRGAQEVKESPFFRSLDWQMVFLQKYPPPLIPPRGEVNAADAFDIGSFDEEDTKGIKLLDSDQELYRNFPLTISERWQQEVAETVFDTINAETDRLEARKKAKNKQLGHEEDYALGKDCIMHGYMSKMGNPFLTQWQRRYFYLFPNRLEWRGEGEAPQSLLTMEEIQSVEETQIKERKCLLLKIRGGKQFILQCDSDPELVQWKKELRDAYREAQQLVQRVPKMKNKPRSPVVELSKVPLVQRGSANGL

| SMILES | remaining activity at 5 µM [1] [%] | remaining activity at 5 µM [2] [%] | remaining activity at 5 µM [3] [%] | remaining activity at 5 µM [5] [%] | remaining activity at 5 µM [6] [%] | remaining activity at 5 µM [7] [%] | remaining activity at 5 µM [8] [%] | remaining activity at 5 µM [9] [%] | remaining activity at 5 µM [10] [%] | remaining activity at 5 µM [11] [%] | also measured |
| --- | --- | --- | --- | --- | --- | --- | --- | --- | --- | --- | --- |
| O=C(Nc1cnn(-c2csc(C(=O)NC3COC3)c2)c1)Nc1ccccc1Cl [Compound 17, 4-(4-(3-(2-chlorophenyl)ureido)-1H-pyrazol-1-yl)-N-(oxetan-3-yl)thiophene-2-carboxamide] | 104 | 111 | 103 | 142 | 105 | 87.1 | 89.7 | 104 | 89.2 | 96.1 | remaining activity at 5 µM ([4]; read-out: % Enzyme Activity (relative to DMSO controls), kinase SIK1): 102% |
| O=C(Nc1cnn(-c2csc(C(=O)NC3COC3)c2)c1)Nc1c(F)cccc1Cl [Compound 25, 4-(4-(3-(2-chloro-6-fluorophenyl)ureido)-1H-pyrazol-1-yl)-N-(oxetan-3-yl)thiophene-2-carboxamide] | 90.3 | 76.6 | 87.2 | 105 | 99.1 | 98 | 95 | 96.2 | 94 | 106 | remaining activity at 5 µM ([4]; kinase SIK1, read-out: % Enzyme Activity (relative to DMSO controls)): 98.3% |
| Cc1sc(C(=O)NC2COC2)cc1-n1cc(NC(=O)Nc2c(F)cccc2Cl)cn1 [Compound 27, 4-(4-(3-(2-chloro-6-fluorophenyl)ureido)-1H-pyrazol-1-yl)-5-methyl-N-(oxetan-3-yl)thiophene-2-carboxamide] | – | – | – | – | – | – | – | – | – | – | remaining activity at 10 µM ([1]; 10 uM): 88.5%; remaining activity at 10 µM ([2]; 10 uM): 105%; remaining activity at 10 µM ([3]; 10 uM): 93.3%; remaining activity at 10 µM ([4]; read-out: % Enzyme Activity (relative to DMSO controls), kinase SIK1, 10 uM): 99.8%; remaining activity at 10 µM ([5]; 10 uM): 93.2%; remaining activity at 10 µM ([6]; 10 uM): 100%; remaining activity at 10 µM ([7]; 10 uM): 115%; remaining activity at 10 µM ([8]; 10 uM): 99.7%; remaining activity at 10 µM ([9]; 10 uM): 88%; remaining activity at 10 µM ([10]; 10 uM): 64.4%; remaining activity at 10 µM ([11]; 10 uM): 106% |
